# pIC50: −log10 of the molar value.
# Assays:
# [1] = biological target: T1, untagged full length SMYD3 (Homo sapiens, UniProt Q9H7B4); experiment: Thermal Shift Assay; type: binding; conditions: protein 1.5-2.0 μM, 5× SYPRO Orange, scans 25° C. to 80° C.; control 4% DMSO
# T1 construct: As protein untagged full length SMYD3 was used
# T1 sequence (Q9H7B4 1-428): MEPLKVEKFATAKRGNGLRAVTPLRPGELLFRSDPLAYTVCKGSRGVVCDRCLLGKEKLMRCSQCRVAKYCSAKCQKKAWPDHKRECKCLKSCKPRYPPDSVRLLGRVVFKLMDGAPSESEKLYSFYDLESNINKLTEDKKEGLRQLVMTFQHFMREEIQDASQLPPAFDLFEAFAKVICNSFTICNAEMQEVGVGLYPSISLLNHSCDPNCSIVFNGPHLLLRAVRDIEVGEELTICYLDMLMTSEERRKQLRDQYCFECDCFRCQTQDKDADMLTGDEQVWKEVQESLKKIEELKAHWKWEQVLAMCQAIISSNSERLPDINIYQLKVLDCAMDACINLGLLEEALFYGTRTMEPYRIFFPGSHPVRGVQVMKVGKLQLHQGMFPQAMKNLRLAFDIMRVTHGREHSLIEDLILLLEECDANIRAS
# Protocol: Thermal Shift Assay Thermal melting experiments were performed with a ViiA™ Real-Time PCR machine (Thermo Fisher Scientific) in 384-well microliter plate with a final volume of 5 μL. Melting curves were obtained at a protein concentration of 1.5-2.0 μM and 5× SYPRO Orange (Invitrogen) using buffer containing 20 mM Tris pH7.0; 150 mM NaCl; 1.0 mM DTT. As protein untagged full length SMYD3 was used. […] As control 4% DMSO was used. Scans were measured from 25° C. to 80° C. at a scanning rate of 0.1° C./sec. All TSA data were analyzed by using Genedata Assay Analyzer.
# SMYD3 = biological target: T2, SMYD3 (Homo sapiens, UniProt Q9H7B4); experiment: SMYD3 Scintillation Proximity Assay (SPA), methylation of MAP3K2 Peptide; type: biochemical; conditions: SMYD3 full length enzyme 10 nM, 3H-SAM 125 nM, MAP3K2 Peptide 1 μM, 120 min at 22° C.
# T2 construct: The SMYD3 full length enzyme was produced in-house by expression (with an N-terminal 6×His tag) in E. coli; 6xHis (N); made in house; host or cells: E. coli
# T2 sequence (Q9H7B4 1-428): T1 sequence (Q9H7B4 1-428)
# Protocol: SMYD3 Scintillation Proximity Assay (SPA)
# The SMYD3 full length enzyme was produced in-house by expression (with an N-terminal 6×His tag) in E. coli and purification by affinity chromatography on a Ni-NTA Sepharose column followed by a size exclusion chromatography step on a Superdex 200 16/60 column (GE Healthcare).
# To this end, 100-fold concentrated compound solutions (in DMSO) were previously prepared by serial dilution (1:3.4) of 2 mM stocks in a clear low volume 384-well source microtiter plate (Greiner Bio-One), from which 100 nl of compounds were transferred into a white low volume test microtiter plate from the same supplier. […] The resulting mixture (5 μl final volume) was shortly centrifuged (2 min., 1500 rpm) and incubated at 22° C. during 120 min. […] Plates containing the stopped reaction were sealed with transparent adhesive foil (Perkin Elmer), centrifuged (2 min., 1500 rpm), and further incubated overnight at 4° C. in order to allow the SPA signals to develop. Subsequently, the amount of product was evaluated by measuring the energy transfer from the […] emitted by the 3H-labeled substrate to the scintillator co-polymerized in the bead's matrix, using a TopCount NXT scintillation counter (Packard) with the standard instrument settings for this purpose. The resulting scintillation counts were taken as indicator for the amount of methylated peptide per well. […] IC50 values were calculated by fitting the normalized inhibition data to a 4-parameter logistic equation using the XLFit analysis software (IDBS).
SMILES,Thermal shift assay (° C.) [1] [°C],pIC50 (SMYD3)
"CC1CC(=O)Nc2cc(C(=O)NCCC3CCC3)ccc2N1C(=O)c1ccccc1 (racemic) [Example 3, 1-benzoyl-N-(2-cyclobutylethyl)-2-methyl-4-oxo-2,3,4,5-tetrahydro-1H-1,5-benzodiazepine-7-carboxamide]",4.56,5.79
"Cc1nocc1C(=O)N1c2ccc(C(=O)NCCC3CCC3)cc2NC(=O)C(C)C1C (single isomer, unassigned) [Example 15, N-(2-cyclobutylethyl)-2,3-dimethyl-1-[(3-methyl-1,2-oxazol-4-yl)carbonyl]-4-oxo-2,3,4,5-tetrahydro-1H-1,5-benzodiazepine-7-carboxamide]",1.27,≤ 4.70
"Cc1nocc1C(=O)N1c2ccc(C(=O)NCCC3CC3)cc2NC(=O)C(C)C1C (single isomer, unassigned) [Example 8, N-(2-cyclopropylethyl)-2,3-dimethyl-1-[(3-methyl-1,2-oxazol-4-yl)carbonyl]-4-oxo-2,3,4,5-tetrahydro-1H-1,5-benzodiazepine-7-carboxamide]",3.77,5.31
"C[C@H]1CC(=O)Nc2cc(C(=O)NCCC3CC3)ccc2N1C(=O)N1CCC(F)(F)C1 [Example 24, (2S)—N-(2-cyclopropylethyl)-1-[(3,3-difluoropyrrolidin-1-yl)carbonyl]-2-methyl-4-oxo-2,3,4,5-tetrahydro-1H-1,5-benzodiazepine-7-carboxamide]",7.35,6.15
"CC1C(=O)Nc2cc(C(=O)NCCC3CCC3)ccc2N(C(=O)c2ccccc2)C1C (mixture of isomers) [Example 4, 1-benzoyl-N-(2-cyclobutylethyl)-2,3-dimethyl-4-oxo-2,3,4,5-tetrahydro-1H-1,5-benzodiazepine-7-carboxamide]",4.38,5.91
"CC1CC(=O)Nc2cc(C(=O)NCCC3CC3)ccc2N1C(=O)c1ccccc1 (racemic) [Example 1, 1-benzoyl-N-(2-cyclopropylethyl)-2-methyl-4-oxo-2,3,4,5-tetrahydro-1H-1,5-benzodiazepine-7-carboxamide]",5.27,5.78
"Cc1nocc1C(=O)N1c2ccc(C(=O)NCCC3CC3)cc2NC(=O)C(C)C1C (single isomer, unassigned) [Example 11, N-(2-cyclopropylethyl)-2,3-dimethyl-1-[(3-methyl-1,2-oxazol-4-yl)carbonyl]-4-oxo-2,3,4,5-tetrahydro-1H-1,5-benzodiazepine-7-carboxamide]",3.50,4.89
"Cc1nocc1C(=O)N1c2ccc(C(=O)NCCC3CC3)cc2NC(=O)C(C)C1C (single isomer, unassigned) [Example 10, N-(2-cyclopropylethyl)-2,3-dimethyl-1-[(3-methyl-1,2-oxazol-4-yl)carbonyl]-4-oxo-2,3,4,5-tetrahydro-1H-1,5-benzodiazepine-7-carboxamide]",1.29,< 4.70
"Cc1nocc1C(=O)N1c2ccc(C(=O)NCCC3CCC3)cc2NC(=O)C(C)C1C (single isomer, unassigned) [Example 16, N-(2-cyclobutylethyl)-2,3-dimethyl-1-[(3-methyl-1,2-oxazol-4-yl)carbonyl]-4-oxo-2,3,4,5-tetrahydro-1H-1,5-benzodiazepine-7-carboxamide]",3.51,5.47
"CC1C(=O)Nc2cc(C(=O)NCCC3CC3)ccc2N(C(=O)N2CCC(N)CC2)C1C (mixture of isomers) [Example 19, 1-[(4-aminopiperidin-1-yl)carbonyl]-N-(2-cyclopropylethyl)-2,3-dimethyl-4-oxo-2,3,4,5-tetrahydro-1H-1,5-benzodiazepine-7-carboxamide]",10.30,7.43

# Further lines, results first:
Thermal shift assay (° C.) [1] [°C],pIC50 (SMYD3),SMILES
8.77,6.28,"CCN1CCN(C(=O)N2c3ccc(C(=O)NCCC4CC4)cc3NC(=O)C[C@@H]2C)CC1 [Example 27, (2S)—N-(2-cyclopropylethyl)-1-[(4-ethylpiperazin-1-yl)carbonyl]-2-methyl-4-oxo-2,3,4,5-tetrahydro-1H-1,5-benzodiazepine-7-carboxamide]"
2.02,4.41,"CCCCCNC(=O)c1ccc2c(c1)NC(=O)CC(C)N2C(=O)c1ccccc1F (racemic) [Example 46, 1-(2-fluorobenzoyl)-2-methyl-4-oxo-N-pentyl-2,3,4,5-tetrahydro-1H-1,5-benzodiazepine-7-carboxamide]"
5.51,6.17,"C[C@H]1CC(=O)Nc2cc(C(=O)NCCC3CC3)ccc2N1C(=O)N1CCC(NCC(F)(F)F)CC1 [Example 29, (2S)—N-(2-cyclopropylethyl)-2-methyl-4-oxo-1-({4-[(2,2,2-trifluoroethyl)amino]piperidin-1-yl}carbonyl)-2,3,4,5-tetrahydro-1H-1,5-benzodiazepine-7-carboxamide]"
7.24,6.41,"C[C@H]1CC(=O)Nc2cc(C(=O)NCCC3CC3)ccc2N1C(=O)N(C)C1CCNCC1 [Example 45, (2S)—N^7-(2-cyclopropylethyl)-N^1,2-dimethyl-4-oxo-N^1-(piperidin-4-yl)-2,3,4,5-tetrahydro-1H-1,5-benzodiazepine-1,7-dicarboxamide]"
2.79,5.60,"C[C@H]1CC(=O)Nc2cc(C(=O)NCCC3CC3)ccc2N1C(=O)N(C)C1CCN(CC(F)(F)F)CC1 [Example 31, (2S)—N^7-(2-cyclopropylethyl)-N^1,2-dimethyl-4-oxo-N^1-[1-(2,2,2-trifluoroethyl)piperidin-4-yl]-2,3,4,5-tetrahydro-1H-1,5-benzodiazepine-1,7-dicarboxamide]"
1.60,4.57,"CCCCCNC(=O)c1ccc2c(c1)NC(=O)CC(C)N2C(=O)C1CCCC1 (racemic) [Example 48, 1-(cyclopentylcarbonyl)-2-methyl-4-oxo-N-pentyl-2,3,4,5-tetrahydro-1H-1,5-benzodiazepine-7-carboxamide]"
9.94,6.89,"CCN1CCC(N(C)C(=O)N2c3ccc(C(=O)NCCC4CC4)cc3NC(=O)C[C@@H]2C)CC1 [Example 28, (2S)—N^7-(2-cyclopropylethyl)-N^1-(1-ethylpiperidin-4-yl)-N^1,2-dimethyl-4-oxo-2,3,4,5-tetrahydro-1H-1,5-benzodiazepine-1,7-dicarboxamide]"
10.17,7.34,"C[C@H]1CC(=O)Nc2cc(C(=O)NCCC3CC3)ccc2N1C(=O)N1CCCNCC1 [Example 33, (2S)—N-(2-cyclopropylethyl)-1-(1,4-diazepan-1-ylcarbonyl)-2-methyl-4-oxo-2,3,4,5-tetrahydro-1H-1,5-benzodiazepine-7-carboxamide]"
8.66,6.67,"C[C@H]1CC(=O)Nc2cc(C(=O)NCCC3CC3)ccc2N1C(=O)N1CC[C@H](N)C1.Cl [Example 37, (2S)-1-{[(3S)-3-aminopyrrolidin-1-yl]carbonyl}-N-(2-cyclopropylethyl)-2-methyl-4-oxo-2,3,4,5-tetrahydro-1H-1,5-benzodiazepine-7-carboxamide hydrochloride (1:1)]"
1.68,4.66,"CCCCCNC(=O)c1ccc2c(c1)NC(=O)CC(C)N2C(=O)c1ccc(C)cc1 (racemic) [Example 47, 2-methyl-1-(4-methylbenzoyl)-4-oxo-N-pentyl-2,3,4,5-tetrahydro-1H-1,5-benzodiazepine-7-carboxamide]"
1.16,4.74,"CCCCNC(=O)c1ccc2c(c1)NC(=O)CC(C)N2C(=O)c1cccc(F)c1 (racemic) [Example 52, N-butyl-1-(3-fluorobenzoyl)-2-methyl-4-oxo-2,3,4,5-tetrahydro-1H-1,5-benzodiazepine-7-carboxamide]"

# Source: patent publication US11161825B2, “4-oxo-2,3,4,5-tetrahydro-1H-1,5-benzodiazepine-7-carboxamides” (Bayer Aktiengesellschaft, priority 2017, dated 2021)
